Source: patent publication US20040019026A1, “Compounds useful for treating hypertriglyceridemia” (priority 2000, published 2004)

Columns and labels:
[1] = background statement; cited from earlier work
Female CD-1 mice = test: Dexamethasone-induced thymic and splenic atrophy, anti-glucocorticoid effect (Example 4); type: in vivo; conditions: 1.6 mg dexamethasone s.c., sacrifice about 24 hours later
Procedure: Female CD-1 mice were obtained from Charles River Laboratories, Kingston, N.Y. at 43-45 days of age. The mice were housed five per cage in plastic shoebox cages on corn cob bedding in the Fels Animal Facility at 72°±2° F. with 50%±5% humidity and twelve hours of alternate light and darkness. The mice had ad libitum access to Purina chain 5015 and acidified water for pretreatment.
Six days later, the mice were weighed, earmarked and redistributed into six groups for treatment: 1) a control group, 2) a group treated with dexamethasone (“DEX”), a glucocorticoid which induces thymic and splenic atrophy, 3) a group treated with 200 mg/kg 16α-fluoro-5-androsten-17-one (hereinafter “drug”), 4) a group treated with 400 mg/kg of, 5) a group treated with dexamethasone and 200 mg/kg drug and 6) a group treated with dexamethasone and 400 mg/kg drug. The treatment in the groups were as follows and were conducted simuitaneously.
The control group was intubated with 0.2 mL of sesame oil for three days. On the third day after commencement of the intubation, the mice were injected subcutaneously with 0.05 mL of absolute ethanol one hour after the last treatment with sesame oil.
The second group was intubated with 0.2 mL of sesame oil for three days. On the third day after the commencement of the intubation, the mice were injected subcutaneously with 1.6 mg of dexamethasone dissolved in 0.05 mL of absolute ethanol approximately one hour after the last treatment with sesame oil.
The third and fourth groups were intubated with 200 mg/Kg and 400 mg/Kg drug, respectively, suspended in 0.2 mL of sesame oil for three days. After commencement of the intubation, the mice were injected subcutaneously with 0.05 mL of absolute ethanol approximately one hour after the last treatment with sesame oil.
The fifth and sixth groups were intubated with 200 mg/kg and 400 mg/kg, respectively, of drug, suspended in 0.2 mL of sesame oil for three days. On the third day after commencement of the intubation, the mice were injected subcutaneously with 1.6 mg of dexamethasome dissolved in 0.05 mL of absolute ethanol approximately one hour after the last treatment with sesame oil.
All of the mice were sacrificed by an overdose of CO2 approximately 24 hours after the injection of ethanol (first, third and fourth groups) or approximately 24 hours after injection with dexamethasone (second, fifth and sixth groups). The mice were weighed and the thymus was excised, cleaned of adventia, rinsed in phosphate-buffered saline (P.B.S.), blotted and weighed. The spleen was also excised, cleaned, rinsed, blotted and weighed.

SMILES	Effect on insulin resistance [1]	Side effects [1]	Spleen Wt. (Female CD-1 mice)	Thymus Wt. (Female CD-1 mice)	Effect on HDL levels [1]	Lowering of triglycerides [1]
O=C(O)c1cccnc1 [Nicotinic acid, nicotinic acid]	worsens insulin resistance	intense flushing and associated pruritus	–	–	–	–
C[C@@H]1C[C@H]2[C@@H]3CCC4=CC(=O)C=C[C@]4(C)[C@@]3(F)[C@@H](O)C[C@]2(C)[C@@]1(O)C(=O)CO [DEX, dexamethasone, reference compound]	–	–	45.2 ± 7.5 mg	36.8 ± 7.1 mg	–	–
Cc1ccc(C)c(OCCCC(C)(C)C(=O)O)c1 [Gemfibrozil, gemfibrozil]	no effect on insulin resistance	–	–	–	modestly raises HDL levels	25-35%
